According to article PMC6409085, “Three odorant-binding proteins are involved in the behavioral response of Sogatella furcifera to rice plant volatiles” (PeerJ, 2019):
pIC50: −log10 of the molar value. Values joined by “and” are separate entries in the source; they are usually repeats but may differ in a detail not shown here. Identical values can stand only once.

How the values were obtained:
[1] = system: S. furcifera adults; test: Y-tube olfactometer behavioral trials; assay type: in vivo, Sogatella furcifera; conditions: odorant 50 µL/L vs hexane; adults
Procedure, shortened: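 Single S. furcifera adults (2 days post-emergence, starved 0.5 h) chose between odorant (100 µL of 50 µL/L on filter paper) and hexane control in a glass Y-tube, charcoal-filtered humidified air 300 mL/min per arm, 25 ± 1 °C, 50% RH. Choice scored if insect passed half an arm and stayed >1 min within 10 min; 45 insects per compound, chi-squared test.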

[2] = target: SfurOBP11 (Sogatella furcifera, UniProt V5T6E3); test: biochemical; assay type: binding
Procedure, shortened: (§1)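 Protein 2.0 µM + 1-NPN 2.0 µM, 50 mM Tris-HCl pH 7.4; competitor odorants 2, 4 … 20 µM final; read 2 min post-addition, ex 337/em 390–490 nm; n=3. K1-NPN from 1-NPN titration/Scatchard; Ki from IC50 corrected for free 1-NPN.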

[3] = target: SfurOBP1 (Sogatella furcifera, UniProt V5T8N5); test: biochemical; assay type: binding; conditions: for Fluorescence competitive binding assay, fluorescence intensity: OBP1, three replicate columns
Procedure, shortened: as §1

[4] = target: SfurOBP3 (Sogatella furcifera, UniProt V5T818); test: biochemical; assay type: binding; conditions: for Fluorescence competitive binding assay, fluorescence intensity: OBP3, three replicate columns
Procedure, shortened: as §1

[5] = target: SfurOBP2 (Sogatella furcifera, UniProt V5T759); test: biochemical; assay type: binding
Procedure, shortened: as §1

SfurOBP3, sequence (V5T818 entry or part of it): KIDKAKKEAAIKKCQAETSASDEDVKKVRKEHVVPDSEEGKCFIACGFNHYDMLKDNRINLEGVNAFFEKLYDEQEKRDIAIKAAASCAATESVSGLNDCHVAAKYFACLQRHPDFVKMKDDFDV
SfurOBP1, sequence (V5T8N5 entry or part of it): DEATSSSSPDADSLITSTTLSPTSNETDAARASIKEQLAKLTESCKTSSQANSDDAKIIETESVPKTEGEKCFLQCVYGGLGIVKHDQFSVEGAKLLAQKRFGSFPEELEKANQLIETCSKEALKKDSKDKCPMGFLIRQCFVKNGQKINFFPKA
SfurOBP2, sequence (V5T759 entry or part of it): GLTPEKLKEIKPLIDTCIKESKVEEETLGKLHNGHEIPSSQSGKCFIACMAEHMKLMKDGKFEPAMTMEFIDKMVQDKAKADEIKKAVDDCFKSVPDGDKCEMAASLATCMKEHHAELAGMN
SfurOBP11, sequence (V5T6E3 entry or part of it): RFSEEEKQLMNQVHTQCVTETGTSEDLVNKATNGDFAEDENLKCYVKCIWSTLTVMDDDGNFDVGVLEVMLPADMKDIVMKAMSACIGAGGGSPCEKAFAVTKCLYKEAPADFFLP

CCCCCC=O [caproaldehyde]
number of insects choosing hexane arm [1]: 9 | number of insects choosing volatilies arm [1]: 12 | number of insects failed (no choice) [1]: 19 | pIC50 ([2]; SfurOBP11, protein and 1-NPN both 2.0 µM, competitor 2-20 µM, read-out: IC50): < 4.70 | Fluorescence intensity, fluorescence competitive binding assay, OBP11 ([2]; ligand concentration 2, replicate 1): 29622 | Fluorescence intensity, fluorescence competitive binding assay, OBP11 ([2]; ligand concentration 2, replicate 2): 27160 | Fluorescence intensity, fluorescence competitive binding assay, OBP11 ([2]; ligand concentration 2, replicate 3): 24651 | Fluorescence intensity, fluorescence competitive binding assay, OBP11 ([2]; ligand concentration 4, replicate 1): 27823 | Fluorescence intensity, fluorescence competitive binding assay, OBP11 ([2]; ligand concentration 4, replicate 2): 29657 | Fluorescence intensity, fluorescence competitive binding assay, OBP11 ([2]; ligand concentration 4, replicate 3): 29706 | Fluorescence intensity, fluorescence competitive binding assay, OBP11 ([2]; ligand concentration 6, replicate 1): 29000 | Fluorescence intensity, fluorescence competitive binding assay, OBP11 ([2]; ligand concentration 6, replicate 2): 25791 | Fluorescence intensity, fluorescence competitive binding assay, OBP11 ([2]; ligand concentration 6, replicate 3): 27264 | Fluorescence intensity, fluorescence competitive binding assay, OBP11 ([2]; ligand concentration 8, replicate 1): 26196 | Fluorescence intensity, fluorescence competitive binding assay, OBP11 ([2]; ligand concentration 8, replicate 2): 25787 | Fluorescence intensity, fluorescence competitive binding assay, OBP11 ([2]; ligand concentration 8, replicate 3): 26691 | Fluorescence intensity, fluorescence competitive binding assay, OBP11 ([2]; ligand concentration 10, replicate 1): 22993 | Fluorescence intensity, fluorescence competitive binding assay, OBP11 ([2]; ligand concentration 10, replicate 2): 24045 | Fluorescence intensity, fluorescence competitive binding assay, OBP11 ([2]; ligand concentration 10, replicate 3): 23459 | Fluorescence intensity, fluorescence competitive binding assay, OBP11 ([2]; ligand concentration 12, replicate 1): 23301 | Fluorescence intensity, fluorescence competitive binding assay, OBP11 ([2]; ligand concentration 12, replicate 2): 22698 | Fluorescence intensity, fluorescence competitive binding assay, OBP11 ([2]; ligand concentration 12, replicate 3): 22770 | Fluorescence intensity, fluorescence competitive binding assay, OBP11 ([2]; ligand concentration 14, replicate 1): 21327 | Fluorescence intensity, fluorescence competitive binding assay, OBP11 ([2]; ligand concentration 14, replicate 2): 20283 | Fluorescence intensity, fluorescence competitive binding assay, OBP11 ([2]; ligand concentration 14, replicate 3): 20685 | Fluorescence intensity, fluorescence competitive binding assay, OBP11 ([2]; ligand concentration 16, replicate 1): 18242 | Fluorescence intensity, fluorescence competitive binding assay, OBP11 ([2]; ligand concentration 16, replicate 2): 16904 | Fluorescence intensity, fluorescence competitive binding assay, OBP11 ([2]; ligand concentration 16, replicate 3): 18315 | Fluorescence intensity, fluorescence competitive binding assay, OBP11 ([2]; ligand concentration 18, replicate 1): 21574 | Fluorescence intensity, fluorescence competitive binding assay, OBP11 ([2]; ligand concentration 18, replicate 2): 21057 | Fluorescence intensity, fluorescence competitive binding assay, OBP11 ([2]; ligand concentration 18, replicate 3): 21178 | Fluorescence intensity, fluorescence competitive binding assay, OBP11 ([2]; ligand concentration 20, replicate 1): 19958 | Fluorescence intensity, fluorescence competitive binding assay, OBP11 ([2]; ligand concentration 20, replicate 2): 19749 | Fluorescence intensity, fluorescence competitive binding assay, OBP11 ([2]; ligand concentration 20, replicate 3): 19854 | Fluorescence competitive binding assay, fluorescence intensity ([3]; ligand concentration 2 (μM)): 7058 and 6495 and 6761 | Fluorescence competitive binding assay, fluorescence intensity ([3]; ligand concentration 4 (μM)): 6839 and 6210 and 6737 | Fluorescence competitive binding assay, fluorescence intensity ([3]; ligand concentration 6 (μM)): 6250 and 6285 and 6245 | Fluorescence competitive binding assay, fluorescence intensity ([3]; ligand concentration 8 (μM)): 7860 and 6318 and 6460 | Fluorescence competitive binding assay, fluorescence intensity ([3]; ligand concentration 10 (μM)): 7929 and 6952 and 5745 | Fluorescence competitive binding assay, fluorescence intensity ([3]; ligand concentration 12 (μM)): 6197 and 6258 and 6135 | Fluorescence competitive binding assay, fluorescence intensity ([3]; ligand concentration 14 (μM)): 6889 and 6127 and 7279 | Fluorescence competitive binding assay, fluorescence intensity ([3]; ligand concentration 16 (μM)): 6363 and 6530 and 5971 | Fluorescence competitive binding assay, fluorescence intensity ([3]; ligand concentration 18 (μM)): 6197 and 6677 and 5953 | Fluorescence competitive binding assay, fluorescence intensity ([3]; ligand concentration 20 (μM)): 6241 and 6216 and 6243 | pIC50 ([3]; SfurOBP1, protein and 1-NPN both 2.0 µM, competitor 2-20 µM, read-out: IC50): < 4.70 | Fluorescence competitive binding assay, fluorescence intensity ([4]; ligand concentration 2): 54416 and 49651 and 50603 | Fluorescence competitive binding assay, fluorescence intensity ([4]; ligand concentration 4): 47681 and 49063 and 52745 | Fluorescence competitive binding assay, fluorescence intensity ([4]; ligand concentration 6): 47400 and 49699 and 51997 | Fluorescence competitive binding assay, fluorescence intensity ([4]; ligand concentration 8): 47134 and 47465 and 47300 | Fluorescence competitive binding assay, fluorescence intensity ([4]; ligand concentration 10): 47300 and 47488 and 47127 | Fluorescence competitive binding assay, fluorescence intensity ([4]; ligand concentration 12): 41818 and 40552 and 41184 | Fluorescence competitive binding assay, fluorescence intensity ([4]; ligand concentration 14): 39535 and 41064 and 41296 | Fluorescence competitive binding assay, fluorescence intensity ([4]; ligand concentration 16): 37737 and 36118 and 39070 | Fluorescence competitive binding assay, fluorescence intensity ([4]; ligand concentration 18): 41678 and 41915 and 41872 | Fluorescence competitive binding assay, fluorescence intensity ([4]; ligand concentration 20): 43199 and 40517 and 41843 | pIC50 ([4]; SfurOBP3, protein and 1-NPN both 2.0 µM, competitor 2-20 µM, read-out: IC50): < 4.70 | pIC50 ([5]; SfurOBP2, protein and 1-NPN both 2.0 µM, competitor 2-20 µM, read-out: IC50): < 4.70 | Fluorescence competitive binding assay, OBP2 (raw fluorescence reading) ([5]; ligand concentration 2 (unit not given), replicate column 1 of 3): 19948 | Fluorescence competitive binding assay, OBP2 (raw fluorescence reading) ([5]; ligand concentration 2 (unit not given), replicate column 2 of 3): 17721 | Fluorescence competitive binding assay, OBP2 (raw fluorescence reading) ([5]; ligand concentration 2 (unit not given), replicate column 3 of 3): 20397 | Fluorescence competitive binding assay, OBP2 (raw fluorescence reading) ([5]; ligand concentration 4 (unit not given), replicate column 1 of 3): 18968 | Fluorescence competitive binding assay, OBP2 (raw fluorescence reading) ([5]; ligand concentration 4 (unit not given), replicate column 2 of 3): 18911 | Fluorescence competitive binding assay, OBP2 (raw fluorescence reading) ([5]; ligand concentration 4 (unit not given), replicate column 3 of 3): 20133 | Fluorescence competitive binding assay, OBP2 (raw fluorescence reading) ([5]; ligand concentration 6 (unit not given), replicate column 1 of 3): 20477 | Fluorescence competitive binding assay, OBP2 (raw fluorescence reading) ([5]; ligand concentration 6 (unit not given), replicate column 2 of 3): 18306 | Fluorescence competitive binding assay, OBP2 (raw fluorescence reading) ([5]; ligand concentration 6 (unit not given), replicate column 3 of 3): 21619 | Fluorescence competitive binding assay, OBP2 (raw fluorescence reading) ([5]; ligand concentration 8 (unit not given), replicate column 1 of 3): 17546 | Fluorescence competitive binding assay, OBP2 (raw fluorescence reading) ([5]; ligand concentration 8 (unit not given), replicate column 2 of 3): 19283 | Fluorescence competitive binding assay, OBP2 (raw fluorescence reading) ([5]; ligand concentration 8 (unit not given), replicate column 3 of 3): 19094 | Fluorescence competitive binding assay, OBP2 (raw fluorescence reading) ([5]; ligand concentration 10 (unit not given), replicate column 1 of 3): 16315 | Fluorescence competitive binding assay, OBP2 (raw fluorescence reading) ([5]; ligand concentration 10 (unit not given), replicate column 2 of 3): 17446 | Fluorescence competitive binding assay, OBP2 (raw fluorescence reading) ([5]; ligand concentration 10 (unit not given), replicate column 3 of 3): 18120 | Fluorescence competitive binding assay, OBP2 (raw fluorescence reading) ([5]; ligand concentration 12 (unit not given), replicate column 1 of 3): 15600 | Fluorescence competitive binding assay, OBP2 (raw fluorescence reading) ([5]; ligand concentration 12 (unit not given), replicate column 2 of 3): 16015 | Fluorescence competitive binding assay, OBP2 (raw fluorescence reading) ([5]; ligand concentration 12 (unit not given), replicate column 3 of 3): 15598 | Fluorescence competitive binding assay, OBP2 (raw fluorescence reading) ([5]; ligand concentration 14 (unit not given), replicate column 1 of 3): 15415 | Fluorescence competitive binding assay, OBP2 (raw fluorescence reading) ([5]; ligand concentration 14 (unit not given), replicate column 2 of 3): 15014 | Fluorescence competitive binding assay, OBP2 (raw fluorescence reading) ([5]; ligand concentration 14 (unit not given), replicate column 3 of 3): 15552 | Fluorescence competitive binding assay, OBP2 (raw fluorescence reading) ([5]; ligand concentration 16 (unit not given), replicate column 1 of 3): 16559 | Fluorescence competitive binding assay, OBP2 (raw fluorescence reading) ([5]; ligand concentration 16 (unit not given), replicate column 2 of 3): 13446 | Fluorescence competitive binding assay, OBP2 (raw fluorescence reading) ([5]; ligand concentration 16 (unit not given), replicate column 3 of 3): 13014 | Fluorescence competitive binding assay, OBP2 (raw fluorescence reading) ([5]; ligand concentration 18 (unit not given), replicate column 1 of 3): 16224 | Fluorescence competitive binding assay, OBP2 (raw fluorescence reading) ([5]; ligand concentration 18 (unit not given), replicate column 2 of 3): 16658 | Fluorescence competitive binding assay, OBP2 (raw fluorescence reading) ([5]; ligand concentration 18 (unit not given), replicate column 3 of 3): 15875 | Fluorescence competitive binding assay, OBP2 (raw fluorescence reading) ([5]; ligand concentration 20 (unit not given), replicate column 1 of 3): 15466 | Fluorescence competitive binding assay, OBP2 (raw fluorescence reading) ([5]; ligand concentration 20 (unit not given), replicate column 2 of 3): 14819 | Fluorescence competitive binding assay, OBP2 (raw fluorescence reading) ([5]; ligand concentration 20 (unit not given), replicate column 3 of 3): 14364
